Experimental data as given in patent US6387950B2, “Treatment of tumors with RARα selective retinoid compounds in combination with other anti-tumor agents” (Allergan Sales, Inc., priority 2000, dated 2002).

Target: T1, RARα receptors (Homo sapiens, UniProt P10276)
T1 construct: made in house; used as extract protein
T1 sequence (P10276 1-462): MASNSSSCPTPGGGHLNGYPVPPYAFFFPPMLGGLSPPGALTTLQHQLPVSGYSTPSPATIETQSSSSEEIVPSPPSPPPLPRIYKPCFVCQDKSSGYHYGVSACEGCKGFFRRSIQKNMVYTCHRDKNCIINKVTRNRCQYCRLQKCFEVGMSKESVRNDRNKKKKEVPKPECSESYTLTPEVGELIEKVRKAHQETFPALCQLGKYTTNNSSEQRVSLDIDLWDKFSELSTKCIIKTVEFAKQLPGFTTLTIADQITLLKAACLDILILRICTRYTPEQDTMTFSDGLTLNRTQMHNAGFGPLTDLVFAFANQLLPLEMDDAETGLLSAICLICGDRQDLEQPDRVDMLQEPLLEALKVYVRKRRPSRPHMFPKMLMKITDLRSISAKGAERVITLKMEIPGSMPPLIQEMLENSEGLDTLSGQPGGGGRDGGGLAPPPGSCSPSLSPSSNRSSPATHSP
Assay: ligand binding assay
Conditions: receptor read as RARα from the sentence
Method: All binding assays were performed in a similar fashion. All six receptor types were derived from the expressed receptor type (RAR α, β, γ and RXR α, β, γ) expressed in Baculovirus. Stock solutions of all compounds were prepared as 10 mM ethanol solutions and serial dilutions carried out into 1:1 DMSO; ethanol. Assay buffers consisted of the following for all six receptor assays: 8% glycerol. 120 mM KCl. 8 mM Tris. 5 mM CHAPS 4 mM DTT and 0.24 mM PMSF. pH-7.4@room temperature.
All receptor biding assays were performed in the same manner. The final assay volume was 250 μl and contained from 10-40 μg of extract protein depending on receptor being assayed along with 5 nM of [^3H] all-trans retinoic acid or 10 nM [^3H] 9-cis retinoic acid and varying concentrations of competing ligand at concentrations that ranged from 0-10^−5M. The assays were formatted for a 96 well minitube system. Incubations were carried out at 4° C. until equilibrium was achieved. […] The amount of receptor-ligand complex was determined by liquid scintillation counting of hydroxyapitite pellet.
After correcting for non-specific binding, IC50 values were determined. […] The IC50 value was determined graphically from a loglogit plot of the data. The […] were determined by application of the Cheng-Prussof equation to the IC50 values, the labeled ligand concentration and the Kd of the labeled ligand. […]

Kd: 5 nM
SMILES: CC1(C)CCC(C)(C)c2c1cc(C(=O)Nc1cc(F)c(C(=O)O)c(F)c1)c(O)c2Cl [Compound 2, 2,6-Difluoro-4-[(3-hydroxy-4-chloro-5,5,8 8-tetramethyl-5,6,7,8-tetrahydronaphthalene-2-carbonyl) -amino]-benzoic acid]
